The results in this text go back to patent US11572590B2, “Methods for evaluating tumor cell spheroids using 3D microfluidic cell culture device” (Dana-Farber Cancer Institute, Inc., priority 2017, dated 2023).

Where two headings read alike, the source gives them in different places.

What is called inhibition is how much of the control response was suppressed.

Common to all, as to test: SelectScreen Kinase Profiling, single point inhibition and IC50 for off-target kinases
What all share (assay type): biochemical

Experiment [1] addresses off-target kinases (Homo sapiens, UniProt Q9UK32). The note with it: RPS6KA6 (RSK4), ZLYTE, ATP Km app.
The target in experiment [2] is T1, off-target kinases (Homo sapiens, UniProt P42680).
T1 sequence (P42680 1-631): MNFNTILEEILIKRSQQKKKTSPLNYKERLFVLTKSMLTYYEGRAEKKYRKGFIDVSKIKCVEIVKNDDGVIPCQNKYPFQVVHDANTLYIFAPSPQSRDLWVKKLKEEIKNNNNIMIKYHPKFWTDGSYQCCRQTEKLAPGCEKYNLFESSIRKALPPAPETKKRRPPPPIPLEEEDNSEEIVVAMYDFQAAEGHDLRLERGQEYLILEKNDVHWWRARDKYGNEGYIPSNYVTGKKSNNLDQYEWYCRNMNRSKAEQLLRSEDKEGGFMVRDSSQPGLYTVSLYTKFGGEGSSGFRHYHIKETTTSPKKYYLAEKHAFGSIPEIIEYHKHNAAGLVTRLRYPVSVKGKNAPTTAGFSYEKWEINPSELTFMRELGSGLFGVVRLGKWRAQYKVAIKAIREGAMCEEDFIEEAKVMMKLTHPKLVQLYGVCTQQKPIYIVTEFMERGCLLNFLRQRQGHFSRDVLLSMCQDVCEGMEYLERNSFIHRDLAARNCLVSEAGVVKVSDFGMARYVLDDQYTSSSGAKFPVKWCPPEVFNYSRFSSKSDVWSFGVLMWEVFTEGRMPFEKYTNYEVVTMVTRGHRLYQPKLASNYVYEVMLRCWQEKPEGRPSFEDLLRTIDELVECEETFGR
Particulars: TEC, LanthaScreen Binding.

Experiment [3] concerns the target off-target kinases (Homo sapiens, UniProt O96017). Particulars: CHEK2 (CHK2), ZLYTE, ATP Km app.
The target of experiment [4] is T2, off-target kinases (Homo sapiens, UniProt P54760).
T2 sequence (P54760 16-987): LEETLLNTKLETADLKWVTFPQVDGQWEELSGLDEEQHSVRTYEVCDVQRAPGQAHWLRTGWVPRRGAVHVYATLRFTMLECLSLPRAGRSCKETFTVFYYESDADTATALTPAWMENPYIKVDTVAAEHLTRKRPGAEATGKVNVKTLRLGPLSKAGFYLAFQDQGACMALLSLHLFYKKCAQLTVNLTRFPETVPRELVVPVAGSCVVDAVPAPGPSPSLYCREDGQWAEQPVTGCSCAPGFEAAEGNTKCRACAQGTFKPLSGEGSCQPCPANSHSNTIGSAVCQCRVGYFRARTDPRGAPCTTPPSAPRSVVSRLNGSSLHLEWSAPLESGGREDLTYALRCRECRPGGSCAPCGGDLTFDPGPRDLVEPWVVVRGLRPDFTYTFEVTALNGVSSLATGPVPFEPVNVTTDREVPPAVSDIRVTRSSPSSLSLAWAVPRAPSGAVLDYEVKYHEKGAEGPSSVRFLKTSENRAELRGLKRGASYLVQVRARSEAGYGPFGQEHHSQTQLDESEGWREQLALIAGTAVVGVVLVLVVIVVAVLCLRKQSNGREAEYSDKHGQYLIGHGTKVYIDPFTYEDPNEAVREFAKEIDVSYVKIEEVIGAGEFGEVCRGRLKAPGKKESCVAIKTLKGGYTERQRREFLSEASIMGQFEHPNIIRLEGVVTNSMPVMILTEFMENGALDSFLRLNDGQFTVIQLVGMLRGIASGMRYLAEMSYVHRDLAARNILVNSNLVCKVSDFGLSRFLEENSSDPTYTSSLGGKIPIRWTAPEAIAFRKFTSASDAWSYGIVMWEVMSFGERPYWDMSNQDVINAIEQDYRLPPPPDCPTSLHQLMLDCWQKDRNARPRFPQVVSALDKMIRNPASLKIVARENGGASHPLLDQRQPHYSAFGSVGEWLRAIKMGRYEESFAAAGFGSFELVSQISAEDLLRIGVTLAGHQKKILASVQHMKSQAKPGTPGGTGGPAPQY
Particulars: EPHB4, ZLYTE, ATP Km app.

Sequence of off-target kinases (Homo sapiens, UniProt O96017) (O96017 whole entry): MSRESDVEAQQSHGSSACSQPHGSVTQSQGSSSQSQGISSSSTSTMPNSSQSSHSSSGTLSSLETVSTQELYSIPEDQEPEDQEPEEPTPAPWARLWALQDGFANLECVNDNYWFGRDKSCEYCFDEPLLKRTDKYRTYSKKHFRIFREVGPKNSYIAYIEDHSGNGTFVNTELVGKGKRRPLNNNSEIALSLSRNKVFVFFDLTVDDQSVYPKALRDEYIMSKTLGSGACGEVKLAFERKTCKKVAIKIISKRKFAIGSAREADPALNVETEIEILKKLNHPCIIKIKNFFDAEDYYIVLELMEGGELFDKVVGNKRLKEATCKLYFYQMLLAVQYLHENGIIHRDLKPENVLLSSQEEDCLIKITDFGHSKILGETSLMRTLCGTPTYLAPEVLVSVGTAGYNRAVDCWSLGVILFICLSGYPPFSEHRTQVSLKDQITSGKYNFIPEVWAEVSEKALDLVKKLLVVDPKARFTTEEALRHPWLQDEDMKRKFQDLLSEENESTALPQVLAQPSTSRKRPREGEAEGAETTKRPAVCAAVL
Sequence of off-target kinases (Homo sapiens, UniProt Q9UK32) (Q9UK32 whole entry): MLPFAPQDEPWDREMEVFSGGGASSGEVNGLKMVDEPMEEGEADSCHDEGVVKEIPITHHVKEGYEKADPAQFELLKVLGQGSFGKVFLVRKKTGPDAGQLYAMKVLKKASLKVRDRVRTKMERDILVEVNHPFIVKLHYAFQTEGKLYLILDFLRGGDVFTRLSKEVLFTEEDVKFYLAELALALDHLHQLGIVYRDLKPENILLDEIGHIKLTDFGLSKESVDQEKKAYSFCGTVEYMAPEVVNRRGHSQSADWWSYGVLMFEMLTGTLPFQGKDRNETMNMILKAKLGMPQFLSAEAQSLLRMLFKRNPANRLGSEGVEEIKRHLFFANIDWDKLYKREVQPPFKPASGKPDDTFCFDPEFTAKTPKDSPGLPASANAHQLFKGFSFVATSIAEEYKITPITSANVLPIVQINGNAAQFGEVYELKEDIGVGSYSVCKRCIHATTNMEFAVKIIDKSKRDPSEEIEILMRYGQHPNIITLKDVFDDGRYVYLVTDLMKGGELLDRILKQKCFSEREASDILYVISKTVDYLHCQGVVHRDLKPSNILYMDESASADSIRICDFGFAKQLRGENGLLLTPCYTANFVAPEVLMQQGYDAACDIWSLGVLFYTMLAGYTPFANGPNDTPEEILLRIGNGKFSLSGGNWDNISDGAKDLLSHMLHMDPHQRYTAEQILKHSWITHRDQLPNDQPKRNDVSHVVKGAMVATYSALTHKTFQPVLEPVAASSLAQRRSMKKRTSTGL

In the case of `N#Cc1cc(-c2ncnc(Nc3ccc(N4CCN(C5COC5)CC4)cc3)n2)ccc1OC1CCOCC1` [Compound 1, 5-(4-((4-(4-(oxetan-3-yl)piperazin-1-yl)phenyl)amino)-1,3,5-triazin-2-yl)-2-((tetrahydro-2H-pyran-4-yl)oxy)benzonitrile], the inhibition is 14% on off-target kinases [1] (read-out: % Inhibition 1); 17% on off-target kinases [1] (read-out: % Inhibition 2); 16% on off-target kinases [1] (read-out: % Inhibition Avg); 0% at off-target kinases [2] (read-out: % Inhibition 1); 2% on off-target kinases [2] (read-out: % Inhibition 2); 1% on off-target kinases [2] (read-out: % Inhibition Avg). The inhibition on off-target kinases [3] (read-out: % Inhibition 1) was 27%; on off-target kinases [3] (read-out: % Inhibition 2), 27%; on off-target kinases [3] (read-out: % Inhibition Avg), 27%; on off-target kinases [4] (read-out: % Inhibition 1), 15%; at off-target kinases [4] (read-out: % Inhibition 2), 14%; on off-target kinases [4] (read-out: % Inhibition Avg) it was 15%.
